# Where “and” joins values, the source holds several entries; their conditions need not be identical. Equal entries are not always repeated.
# Tests used:
# [1] = system: K562 cells; test: MTT cell viability assay; type: cell-based, human; conditions: MTT, 7 days
# Protocol: (§1) Human leukemia cells K562, MV4;11 and RS4;11 (purchased from ATCC) and KOPN8, MOLM13 (purchased from DSMZ) were cultured in RPMI 1640 (Invitrogen) supplemented with 10% heat inactivated (h.i.) FBS and 1% penicillin/streptomycin (Invitrogen). SET2 cells (purchased from DSMZ) were cultured in RPMI 1640 supplemented with 20% h.i. FBS and 1% penicillin/streptomycin. Cells were plated at 1 × 10^5 to 2 × 10^5 cells/mL depending on cell line and treated with 0.25% DMSO or varying concentrations of compounds and incubated at 37 °C, 5% CO2 incubator for 7 days. Media was changed on day 3 or 4 and compounds were resupplied. […] Cell suspensions (100 μL) were transferred to the 96-well plates for each sample in quadruplicate at the time of media change. At day 7, 10 µL of MTT reagent (M6494, Molecular Probes™) was added to each well of the 96 well plate and incubated at 37 °C for 4 h. The formazan was then solubilized by adding 100 µL acidified 10% SDS solution and incubated at 37 °C overnight. Plates were read for absorbance at 570 nm using a PHERAstar BMG microplate reader. The experiments were performed two times in quadruplicates with calculation of mean and SD for each condition. Data were analyzed in Prism 8.0.0 to obtain GI50 values.
# (§2) Supplementary Figure 7. […] (a)
# (§3) Titration curves from the MTT cell viability assay performed after 4, 7, and 11 (or 10) days of
# (§4) Titration curves from the MTT cell viability assay performed after 7 days of treatment of KOPN8 ,
# (§5) MOLM13 and MV4;11 cell lines harboring MLL1 translocation (MLL1-r) or K562 cell line (non-
# (§6) Representative graphs are shown
# (§7) from two independent MTT experiments performed for each cell line. GI50 values correspond to […]
# [2] = system: KOPN8 cells; test: MTT cell viability assay; type: cell-based, human; conditions: MTT, 7 days
# Protocol: as §1, §2, §3, §4, §5, §6, §7
# [3] = system: RS4;11 cells; test: MTT cell viability assay; type: cell-based, human; conditions: 7 days
# Protocol: as §1
# [4] = system: SET2 cells; test: MTT cell viability assay; type: cell-based, human; conditions: MTT, 7 days
# Protocol: as §1
# [5] = system: MV4;11 cells; test: Annexin V apoptosis assay (flow cytometry); type: cell-based, human; conditions: for MV4;11 % Annexin V(+) cells: 7 days
# [6] = system: MLL fusion target genes in MOLM13 cells; test: Real time qRT-PCR gene expression; type: cell-based, human
# Protocol: (§8) 0.5 × 10^6 – 3 × 10^6 cells from each sample were collected at days 7 or 8 of treatment, centrifuged at 211 xg, and RNA was extracted according to the RNeasy Mini Kit protocol (74106, Qiagen). Extracted RNA was quantified using Nanodrop 2000 UV-Vis spectrophotometer and 0.5–1 µg of total RNA was reverse transcribed into cDNA using High-Capacity cDNA Reverse Transcription Kit (4368814, Applied Biosystems™) according to the manufacturer’s protocol. Real-time PCR was performed using the CFX96 Touch Real-Time PCR Detection System (Bio-Rad). TaqMan Gene Expression Master Mix and TaqMan Gene Expression Assays were purchased from Applied Biosystems. Relative quantification of each gene transcript was carried out using the comparative Ct method as described in the Applied Biosystems User Bulletin no. 2. TaqMan Gene Expression Assays were used: HPRT1: Hs02800695_m1, DLX2: Hs00269993_m1, FLT3: Hs00174690_m1, HOXA9: Hs00365956_m1, MEF2C: Hs00231149_m1, MEIS1: Hs00180020_m1, MNDA: Hs00935905_m1.
# (§9) Supplementary Figure 10. Effect of AS-nc on gene expression in MLL leukemia cells. (a, b) Quantitative RT-PCR performed in MOLM13 cells (a) or MV4;11 cells (b) after 7 days of treatment with AS-nc. Gene expression was normalized to HPRT1 and referenced to the DMSO treated cells. Representative data from two independent experiments, each performed in triplicates, […]
# [7] = system: MLL fusion target genes in MV4;11 cells; test: Real time qRT-PCR gene expression; type: cell-based, human; conditions: AS-nc 3 uM
# Protocol: as §8, §9
# [8] = biological target: ASH1L (amino acids 2046–2330) (Homo sapiens, UniProt Q9NR48); test: Histone methyltransferase (HMT) assay
# Protocol: The mixtures of ASH1L and compounds were incubated at room temperature for 1 h. […] The reaction was continued for 1 h at room temperature, then quenched by addition of 10% Trichloroacetic acid (TCA) and then transferred to 96-well filter plates (Millipore sigma, MSFBN6B), washed twice with 10% TCA and then once with 200-proof ethanol. After extensive drying, 70 µL of Microscint-O scintillant (PerkinElmer) was added and counts per minute (CPM) were measured using a MicroBeta microplate counter (PerkinElmer). Titration curves were plotted using Prism (GraphPad Prism 8.0.0.) and IC50 values were calculated.
smiles,measurement,setting,value
CN1CC(C(=O)NCc2ccc3c(-c4cccc(C(N)=O)c4)cn(C4CCN(S(=O)(=O)C(F)(F)F)CC4)c3c2)C1 [AS-nc],% activity K562,[1]; log[compound] -4.92082,87.2356% and 88.3293% and 79.0617% and 81.4793%
same,% activity K562,[1]; log[compound] -5.22185,96.906% and 94.8338% and 87.581% and 99.8993%
same,% activity K562,[1]; log[compound] -5.52288,91.5527% and 87.8688% and 87.2356% and 88.1566%
same,% activity K562,[1]; log[compound] -5.82391,106.979% and 101.569% and 98.9783% and 92.4737%
same,% activity K562,[1]; log[compound] -6.12494,95.2367% and 84.818% and 86.8902% and 88.0414%
same,% activity K562,[1]; log[compound] -6.42597,88.8473% and 100.475% and 98.4026% and 99.0934%
same,% activity KOPN-8,[2]; log[compound] -4.92082,88.0603% and 89.0658% and 78.5086% and 67.1135%
same,% activity KOPN-8,[2]; log[compound] -5.22185,96.2715% and 87.8928% and 88.5631% and 98.2824%
same,% activity KOPN-8,[2]; log[compound] -5.52288,93.4227% and 96.9418% and 95.7687% and 88.2279%
same,% activity KOPN-8,[2]; log[compound] -5.82391,91.9145% and 89.5685% and 90.7415% and 92.2497%
same,% activity KOPN-8,[2]; log[compound] -6.12494,92.2497% and 92.4173% and 96.2715% and 88.7306%
same,% activity KOPN-8,[2]; log[compound] -6.42597,96.439% and 101.969% and 107.164% and 94.4282%
same,% activity RS4;11,[3]; log[compound] -4.92082,85.5125% and 87.6993% and 89.3394% and 75.672%
same,% activity RS4;11,[3]; log[compound] -5.22185,105.376% and 104.647% and 93.5307% and 91.5262%
same,% activity RS4;11,[3]; log[compound] -5.52288,102.096% and 100.638% and 93.713% and 78.4055%
same,% activity RS4;11,[3]; log[compound] -5.82391,120.137% and 113.941% and 76.4009% and 77.1298%
same,% activity RS4;11,[3]; log[compound] -6.12494,99.7267% and 104.647% and 93.8952%
same,% activity RS4;11,[3]; log[compound] -6.42597,106.287% and 103.553% and 98.8155% and 91.344%
same,% activity SET2,[4]; log[compound] -4.92082,98.5542% and 101.644% and 102.951% and 102.436%
same,% activity SET2,[4]; log[compound] -5.22185,96.2567% and 98.5146% and 98.9107% and 94.9495%
same,% activity SET2,[4]; log[compound] -5.52288,90.1168% and 94.8703% and 93.8007% and 101.723%
same,% activity SET2,[4]; log[compound] -5.82391,80.8081% and 86.1953% and 84.7693% and 93.5235%
same,% activity SET2,[4]; log[compound] -6.12494,93.2858% and 94.8703% and 102.04% and 107.625%
same,% activity SET2,[4]; log[compound] -6.42597,105.803% and 101.208% and 102.278% and 90.711%
same,MV4;11 % Annexin V(+) cells,[5]; 2 uM,3.62% and 6.04% and 7.38%
same,MV4;11 % Annexin V(+) cells,[5]; 4 uM,2.35% and 3.67% and 4.83%
same,MV4;11 % Annexin V(+) cells,[5]; 6 uM,3% and 3.59% and 6.28%
same,apoptosis in the MLL leukemia cells (Annexin V positive cells),[5]; MV4;11 and KOPN8,not observed
same,"MOLM13 fold change vs DMSO, DLX2",[6]; AS-nc 2 uM,1.06 and 1.01 and 0.76
same,"MOLM13 fold change vs DMSO, FLT3",[6]; AS-nc 2 uM,1.07 and 0.95 and 0.92
same,"MOLM13 fold change vs DMSO, HOXA9",[6]; AS-nc 2 uM,1.01 and 1.09 and 0.84
same,"MOLM13 fold change vs DMSO, MEF2C",[6]; AS-nc 2 uM,0.98 and 1.02 and 0.94
same,"MOLM13 fold change vs DMSO, MEIS1",[6]; AS-nc 2 uM,1.03 and 1.08 and 0.97
same,"MOLM13 fold change vs DMSO, MNDA",[6]; AS-nc 2 uM,1.45 and 1.05 and 1.01
same,"MOLM13 fold change vs DMSO, DLX2",[6]; AS-nc 4 uM,1.02 and 0.96 and 0.71
same,"MOLM13 fold change vs DMSO, FLT3",[6]; AS-nc 4 uM,1.03 and 0.86 and 0.96
same,"MOLM13 fold change vs DMSO, HOXA9",[6]; AS-nc 4 uM,0.95 and 1 and 1.06
same,"MOLM13 fold change vs DMSO, MEF2C",[6]; AS-nc 4 uM,1 and 0.95 and 1.01
same,"MOLM13 fold change vs DMSO, MEIS1",[6]; AS-nc 4 uM,0.97 and 1.1 and 0.95
same,"MOLM13 fold change vs DMSO, MNDA",[6]; AS-nc 4 uM,1.29 and 1.57 and 1.44
same,"MOLM13 fold change vs DMSO, DLX2",[6]; AS-nc 6 uM,1.04 and 1 and 0.77
same,"MOLM13 fold change vs DMSO, FLT3",[6]; AS-nc 6 uM,1.07 and 0.95 and 0.88
same,"MOLM13 fold change vs DMSO, HOXA9",[6]; AS-nc 6 uM,1.03 and 0.88 and 0.9
same,"MOLM13 fold change vs DMSO, MEF2C",[6]; AS-nc 6 uM,1.03 and 0.94 and 0.96
same,"MOLM13 fold change vs DMSO, MEIS1",[6]; AS-nc 6 uM,0.86 and 1.09 and 0.93
same,"MOLM13 fold change vs DMSO, MNDA",[6]; AS-nc 6 uM,1.31 and 1.06 and 0.93
same,"expression of MLL fusion target genes (MEF2C, DLX2, FLT3, HOXA9)",[6]; MOLM13 and MV4;11,no changes
same,"MV4;11 fold change vs DMSO, FLT3",[7],1.06 and 0.99 and 0.95
same,"MV4;11 fold change vs DMSO, HOXA9",[7],1.01 and 0.9
same,"MV4;11 fold change vs DMSO, MEF2C",[7],1.19 and 1.02 and 0.92
same,"MV4;11 fold change vs DMSO, MESIS1",[7],0.86 and 1.07 and 0.96
same,reduced inhibitory activity (thioamide of AS-99 replaced with amide),[8],~ 100 fold
same,IC50,"[8]; IC50, HMT assay with nucleosomes as substrate, mean ± s.d. from two independent experiments",72 µM
same,% Ash1L activity,[8]; Log[compound] (M) -3,8.534% and 3.267%
same,% Ash1L activity,[8]; Log[compound] (M) -3.47712,48.6163% and 37.7254%
same,% Ash1L activity,[8]; Log[compound] (M) -3.95424,56.4006% and 63.2923%
same,% Ash1L activity,[8]; Log[compound] (M) -4.43136,67.1309% and 48.4913%
same,% Ash1L activity,[8]; Log[compound] (M) -4.90849,72.7906% and 62.8102%
same,% Ash1L activity,[8]; Log[compound] (M) -5.38561,70.7731% and 79.0573%
same,% Ash1L activity,[8]; Log[compound] (M) -5.86273,90.948% and 119.086%
